Assay results published in patent US10017515B2, “Stable amorphous ticagrelor and a process for its preparation” (Sun Pharmaceutical Industries Limited, priority 2014, dated 2018).

Experiments:
[1] = Stability on storage, HPLC purity; type: physicochemical; conditions: material of Example 6
Experimental: HPLC purity (initial and at stability at a temperature of 25° C.±2° C. at relative humidity of 60% ±5% for 1, 2, 3, and 6 months): 99.8%
HPLC purity (initial and at stability at a temperature of 5° C.±3° C. for 3 and 6 months): 99.9%

[2] = Stability on storage, X-ray powder diffraction (XRPD) pattern; type: physicochemical
Experimental: The X-ray powder diffraction (XRPD) pattern was recorded using a PANalytical® X'pert PRO with X'celerator® as the detector.

[3] = 25° C.±2° C., relative humidity 60% ±5%, for 1, 2, 3, and 6 months

- HPLC purity (initial and at stability) ([1]; 5° C.±3° C. for 3 and 6 months): 99.9%
- HPLC purity (initial and at stability) [1, 3]: 99.8%
- Change in XRPD pattern on storage ([2]; 5° C.±3° C. for 3 and 6 months, listed as stable amorphous ticagrelor): no change in XRPD pattern
- Change in XRPD pattern on storage ([2]; 25° C.±2° C., relative humidity 60% ±5%, for 1, 2, 3, and 6 months, listed as stable amorphous ticagrelor): no change in XRPD pattern
Structure (SMILES): CCCSc1nc(N[C@@H]2C[C@H]2c2ccc(F)c(F)c2)c2nnn([C@@H]3C[C@H](OCCO)[C@@H](O)[C@H]3O)c2n1 [amorphous ticagrelor, (1S,2S,3R,5S)-3-[7-{[(1R,2S)-2-(3,4-difluorophenyl)cyclopropyl]amino}-5-(propylthio)-3H-[1,2,3]-triazolo[4,5-d]pyrimidin-3-yl]-5-(2-hydroxyethoxy)cyclopentane-1,2-diol]
- Change in XRPD pattern on storage ([2]; 5° C.±3° C. for 3 and 6 months): no change was observed in the XRPD pattern
- Change in XRPD pattern on storage [2, 3]: no change was observed in the XRPD pattern
